Measurements as given in patent US20220304929A1, “LIPIDS FOR DELIVERY OF CHARGED MATERIAL, FORMULATIONS THEREOF AND METHOD FOR MAKING SAME” (INTEGRATED NANOTHERAPEUTICS INC., priority 2019, published 2022).

What was measured:
[1] = LNP particle size and polydispersity by dynamic light scattering; type: physicochemical
[2] = RNA or antisense oligonucleotide encapsulation efficiency (Quant-iT Ribogreen RNA / Oligreen ssDNA assays); type: physicochemical
Method: The RNA or antisense oligonucleotide encapsulation efficiency was determined using the Quant-iT Ribogreen RNA or Oligreen ssDNA Assays, respectively (Life Technologies, Burlington, ON). Briefly, LNP was incubated at 37° C. for 10 min in the presence or absence of 1% Triton X-100 (Sigma-Aldrich, St. Louis, Mo.) followed by the addition of the Ribogreen or Oligreen reagent. The fluorescence intensity (Ex/Em: 480/520 nm) was determined and samples treated with Triton X-100 represent total nucleic acid while untreated samples represent unencapsulated nucleic acid.
To prepare the LNPs, ionizable lipid, DSPC, cholesterol and PEG-DMPE were dissolved in ethanol. The siRNA was dissolved in pH 4.0-6.2 buffer composed of 10-50 mM acetate, succinate or citrate. In select cases, 10-50 mM 4-(2-Hydroxyethyl)piperazine-1-ethanesulfonic acid (HEPES) or 2-(N-Morpholino)ethanesulfonic acid (MES) buffer was used. LNP were prepared by rapidly mixing the lipid components in ethanol (in molar ratio of 50/10/38.5/1.5 of […]) with nucleic acids in aqueous buffer at a volumetric flow rate ratio of 1:3 (ethanol to aqueous, combined flow rate >12 mL/min) at room temperature. Typically, siRNA/lipids ratios were targeted for 0.056 wt/μmol. The product was then dialyzed against 1× phosphate-buffered saline (PBS) at pH 7.4 for 24 hours to remove residual ethanol and to raise the pH. PBS was refreshed after 4 hours.

[3] = HA incorporation into LNP (HA:Lipid ratio); type: physicochemical; settings: LNP containing ionizable lipid and HA (8-15 kDa)
Method: (§1) Lipid concentrations were determined by measuring total cholesterol using the Cholesterol E enzymatic assay kit from Wako Chemicals USA (Richmond, Va.).
Hyaluronic acid was used as an example of anionic cargos. LNPs were prepared as described in Example 2 containing HA with a molecular weight of 8-15 kDa.

[4] = Peptide incorporation into LNP (Peptide:Lipid ratio; BCA or CBQCA protein quantification); type: physicochemical
Method: as §1
Quantification of protein/peptide was performed with the use of either the BCA Protein Assay (Pierce) or the CBQCA Protein Quantitation Kit (Invitrogen) according to the manufacturer's instructions.

[5] = test system: luciferase expressing human prostate cells (22Rv1); experiment: LNP-siRNA luciferase gene silencing in cultured 22Rv1 cells; type: cell-based; settings: 1 ug/mL siRNA, 16-24 hr
Method: Cells were treated with lipid nanoparticle (LNP) formulations containing ionizable lipids of the disclosure and Luciferase siRNA at concentrations of 1.0 (left bar), 0.3 (middle bar) and 0.1 μg/mL (right bar). The level of luminescence was measured post treatment. The ionizable lipids incorporated in the LNPs were 2-(dimethylamino)ethyl (±)-syn-9,10-dilinoleoxystearate (INT-A001), 3-(diethylamino)propyl (±)-syn-9,10-dilinoleoxystearate (INT-A002), 3-(dimethylamino)propyl (±)-syn-9,10-dilinoleoxystearate (INT-A003), 2-(diethylamino)ethyl (±)-syn-9,10-dilinoleoxystearate (INT-A004), 3-(dimethylamino)propyl (12R)-linoleoxyoleate (INT-A005), 3-(diethylamino)propyl (syn-9,10,12R)-trilinoleoxystearate (INT-A006), and 3-(diethylamino)propyl (±)-syn-9,10-bis(2-hexyldecanoyloxy)stearate (INT-A007).
The level of luminescence was measured 16-24 hr post treatment and the relative luminescence is ranked from highest (left) to lowest (right).
The activity of the ionizable lipids in vitro was evaluated in luciferase expressing human prostate cells (22Rv1). LNPs containing siRNA against firefly luciferase were prepared as described in Example 2. […] Equal amounts of Steady-Glo reagent (Promega) was added to each sample and the level of luminescence was determined using a Synergy LX plate reader (BioTek). […]

factor VII (FVII) = experiment: LNP-siRNA activity in the mouse Factor VII model; type: in vivo; settings: C57Bl/6 mice, i.v. tail vein, 0.03-0.3 mg/kg siRNA, 24 hours post-injection
Method: Lipid nanoparticle (LNP) formulations containing cationic lipids of the disclosure and FVII siRNA were injected via a tail vein in C57Bl/6 wild-type mice and the levels of FVII in plasma was measured post injection. The mice were injected with LNP-siRNA at doses of 0.03 (left bar), 0.1 (middle bar) and 0.3 mg/kg (right bar). The cationic lipids incorporated in the LNPs were INT-A001, INT-A002, INT-A003 and INT-A007.
LNPs prepared as described in Example 2 containing siRNA against factor VII (FVII) were diluted with PBS such that injection volumes were maintained at 10 mL/kg body weight and administered (based on siRNA concentration) intravenously via tail vein in 6 to 8 weeks old female C57Bl/6 mice (Charles River Laboratories, Wilmington, Mass.). At 24 hours post-injection, animals were euthanized and blood was collected via intracardiac sampling. Blood samples were allowed to coagulate at 4° C. overnight and the serum was separated followed by centrifugation for 15 min at 12,000 rpm. The serum FVII levels were determined using the Biophen VII chromogenic assay (Aniara, Mason, Ohio) according to the protocol of the manufacturer.

[6] = LNP containing ionizable lipid and HA (8-15 kDa)
[7] = LNP containing ionizable lipid and a 2.0 kDa acidic peptide (net charge -3)
[8] = LNP containing ionizable lipid and a 4.2 kDa acidic peptide (net charge -3)
[9] = LNP containing ionizable lipid and antisense oligonucleotide
[10] = LNP containing ionizable lipid and siRNA

Particle Diameter [1, 6]: 58 nm
Polydispersity index (PDI) [1, 6]: 0.065
Particle Diameter [1, 7]: 79 nm
Polydispersity index (PDI) [1, 7]: 0.019
Particle Diameter [1, 8]: 52 nm
Polydispersity index (PDI) [1, 8]: 0.049
Particle Diameter [1, 9]: 55 nm
Polydispersity index (PDI) [1, 9]: 0.070
Particle Diameter [1, 10]: 59 nm
Polydispersity index (PDI) [1, 10]: 0.021
Encapsulation Efficiency [2, 9]: 84%
Encapsulation Efficiency [2, 10]: 84%
HA:Lipid [3]: 0.096 wt/wt
Peptide:Lipid [4, 7]: 0.075 wt/wt
Peptide:Lipid [4, 8]: 0.162 wt/wt
Compound: CCCCCCCCC(CCCCCC)C(=O)O[C@@H](CCCCCCCC)[C@@H](CCCCCCCC(=O)OCCCN(CC)CC)OC(=O)C(CCCCCC)CCCCCCCC (mixture of isomers) [INT-A007, 3-(Diethylamino)propyl (±)-syn-9,10-bis(2-hexyldecanoyloxy)stearate]
Relative activity in silencing of the firefly luciferase gene (luminescence) [5]: most active
Activity in mediating FVII gene-silencing (residual serum FVII levels) (factor VII (FVII)): active in mediating gene-silencing
